Legend:
p38α = p38α (Homo sapiens, UniProt Q16539); details: 10 and 100 nM
Protocol: Phosphorylation of 3.5 µg of p38 substrate was detected in a reaction having 1 µCi [γ-^32P] ATP (Perkin Elmer Life Sciences), 50 µM ATP, 50 ng active recombinant p38 in 50 µL kinase buffer containing 25 mM Tris-HCl, pH 7.5, 10 mM MgCl2, 5 mM β-glycerophosphate, 0.1 mM Na3VO4 and 2 mM DTT. The reaction was incubated at 30°C for 10 minutes and 25 µL of the reaction was spotted on Whatman P81 filter paper. The filter paper was washed 3 times in 0.5% phosphoric acid, air dried and counted using Beckman LS6500 multipurpose scintillation counter. Percent p38 inhibition was graphed using GraphPad Prism software 5.0.

[1] = tested on: LPS-stimulated TNFα synthesis; design: method as in PMID 14561090; details: acute rat model of LPS-stimulated TNFα synthesis; cited from earlier work
[2] = molecular target: T1, recombinant GST-tagged human protein kinase D1 (PKD1) (Homo sapiens, UniProt Q15139); assay: In vitro radiometric PKD1 kinase assay; assay type: biochemical
T1 construct: purchased Enzo Life sciences (Farmingdale, NY)
T1 sequence (Q15139 1-912): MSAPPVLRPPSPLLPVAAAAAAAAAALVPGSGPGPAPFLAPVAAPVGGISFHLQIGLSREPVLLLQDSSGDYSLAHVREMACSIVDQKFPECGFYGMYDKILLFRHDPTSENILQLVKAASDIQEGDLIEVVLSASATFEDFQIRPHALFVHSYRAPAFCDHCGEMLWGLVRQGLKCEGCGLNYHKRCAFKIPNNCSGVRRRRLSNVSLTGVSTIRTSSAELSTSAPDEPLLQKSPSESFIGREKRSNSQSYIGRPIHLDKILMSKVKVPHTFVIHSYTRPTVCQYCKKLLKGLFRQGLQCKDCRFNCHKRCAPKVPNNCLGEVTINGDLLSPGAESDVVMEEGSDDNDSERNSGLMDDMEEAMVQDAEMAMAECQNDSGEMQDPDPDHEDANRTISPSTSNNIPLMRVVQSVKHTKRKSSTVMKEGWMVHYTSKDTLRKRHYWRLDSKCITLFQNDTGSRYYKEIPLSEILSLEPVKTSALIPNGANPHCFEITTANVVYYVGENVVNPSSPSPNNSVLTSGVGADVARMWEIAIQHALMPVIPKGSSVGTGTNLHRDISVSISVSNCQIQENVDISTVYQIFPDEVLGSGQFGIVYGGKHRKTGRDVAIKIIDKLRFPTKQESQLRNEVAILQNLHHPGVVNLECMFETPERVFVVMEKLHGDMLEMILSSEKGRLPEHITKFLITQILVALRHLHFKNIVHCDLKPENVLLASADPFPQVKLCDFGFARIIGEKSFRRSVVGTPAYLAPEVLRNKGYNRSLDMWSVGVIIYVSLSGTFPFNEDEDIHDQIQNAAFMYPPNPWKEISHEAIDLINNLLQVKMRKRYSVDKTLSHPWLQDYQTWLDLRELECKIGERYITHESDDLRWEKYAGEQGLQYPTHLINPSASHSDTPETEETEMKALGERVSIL
Protocol: All compounds were given distinct UPCMLD (University of Pittsburgh Center for Chemical Methodologies and Library Development) IDs and were then assigned numerical IDs for convenient data display. Evaluation of each compound was carried out in triplicate at a single concentration (1 µM). Our previously described PKD1 inhibitor, kb-NB142-70, and DMSO (solvent alone) were used as positive and negative controls, respectively. Percent residual kinase activity was calculated based on that of the negative control (DMSO).
Kinase active recombinant GST-tagged human protein kinase D1 (PKD1) was obtained from Enzo Life sciences (Farmingdale, NY). DMSO was purchased from Sigma. Recombinant PKCα, PKCδ and CAMKIIα were obtained from SignalChem (Richmond, BC, Canada). ATP was purchased from Fisher Scientific. HDAC5 substrate peptide was synthesized by Biobasic Canada Inc. (Markham, ON). Myelin basic protein 4–14 was purchased from AnaSpec Inc. (Fremont, CA). The targeted kinase inhibitor library was obtained from Hoffmann-La Roche, Inc.
1.2 µg of HDAC-5 was used as substrate in the reaction. Phosphorylation of HDAC5 was detected in a kinase reaction having 1 µCi [γ-^32P] […] The reaction was incubated at 30° for 10 minutes and 25 µL of the reaction was spotted on Whatman P81 filter paper. The filter paper was washed 3 times in 0.5% phosphoric acid, air dried and counted using Beckman LS6500 multipurpose scintillation counter. Percent PKD1 inhibition was graphed using GraphPad Prism software 5.0.

[3] = molecular target: T2, endogenous PKD1 in LNCaP prostate cancer cells (Homo sapiens, UniProt Q15139); assay: PMA-induced activation of PKD1 in LNCaP cells (immunoblot pS916 / pS744/748); assay type: cell-based; details: PMA 10 nM
T2 construct: endogenous in cells; host or cells: LNCaP prostate cancer cells
T2 sequence (Q15139 1-912): T1 sequence (Q15139 1-912)
Protocol: (§1) PMA induces PKC-dependent phosphorylation of Ser744/748 (S^744/748) in the activation loop followed by autophosphorylation of PKD1 on Ser916 (S^916) in the C-terminus, [31]. The catalytic activity of PKD1 correlates well with the level of phosphorylation at S^916 [31].
(§2) Figure 5 In vitro IC50, cellular activity, and mode of action of representative compounds. […] IC50 values were calculated based on the dose-response curve. Data are represented as mean ± SEM of 3 independent experiments. […] Cell lysates were subjected to immunoblotting for pS^916-PKD1 and pS^744/748-PKD1. Tubulin was blotted as loading control. The experiments were repeated three times and representative blots are shown. C.

PKD1 = molecular target: T3, PKD1 (Homo sapiens, UniProt Q15139); assay: Kinetic analysis, Lineweaver-Burk plots (ATP competition); assay type: biochemical
T3 construct: purchased Enzo Life sciences (Farmingdale, NY)
Protocol: as §1, §2

PKCα = molecular target: T4, PKCα (Homo sapiens, UniProt P17252); assay: In vitro radiometric PKC kinase assay; assay type: biochemical; details: 0.1, 1 and 10 µM; positive control
T4 construct: purchased SignalChem (Richmond, BC, Canada)
Protocol: (§3) In this study, we counter-screened the twenty-eight PKD1 inhibitory agents for inhibition of PKCα, PKCδ and CAMKIIα in order to get an initial profile for the potential PKD selectivity, since these are the functionally most closely related kinases. The compounds were examined at 0.1, 1 and 10 µM concentration. […] Next, the inhibitory activity for CAMKIIα was examined.
(§4) The PKC kinase assay was carried out by co-incubating 1 µCi [γ-^32P]ATP, 20 µM ATP, 50 ng of purified PKCα or PKCδ and 5 µg of myelin basic protein 4–14, 0.25 mg/mL bovine serum albumin, 0.1 mg/mL phosphatidylcholine/phosphatidylserine (80/20%) (1 µM), 1 µM phorbol dibutyrate in 50 µL of kinase buffer containing 50 mM Tris-HCl, pH 7.5, 4 mM MgCl2 and 10 mM β-mercaptoethanol. For the CAMK assay, 50 ng of CAMK and 2 µg Syntide-2 substrate in 50 µL kinase buffer were incubated with 0.1 mM MgCl2, 1 µCi of [γ-^32P] ATP, 70 µM ATP. 0.5 mM CaCl2 and 30 ng/µL calmodulin were preincubated for 15 min on ice and then added in the kinase reaction. The reactions were incubated at 30°C for 10 minutes and 25 µL of the reaction was spotted on Whatman P81 filter paper. The filter paper was washed 3 times in 0.5% phosphoric acid, air dried and counted using Beckman LS6500 multipurpose scintillation counter.

PKCδ = PKCδ (Homo sapiens, UniProt Q05655); assay: In vitro radiometric PKC kinase assay; assay type: biochemical; design: purchased SignalChem (Richmond, BC, Canada); details: 0.1, 1 and 10 µM; positive control
Sequence of PKCδ (Q05655 whole entry): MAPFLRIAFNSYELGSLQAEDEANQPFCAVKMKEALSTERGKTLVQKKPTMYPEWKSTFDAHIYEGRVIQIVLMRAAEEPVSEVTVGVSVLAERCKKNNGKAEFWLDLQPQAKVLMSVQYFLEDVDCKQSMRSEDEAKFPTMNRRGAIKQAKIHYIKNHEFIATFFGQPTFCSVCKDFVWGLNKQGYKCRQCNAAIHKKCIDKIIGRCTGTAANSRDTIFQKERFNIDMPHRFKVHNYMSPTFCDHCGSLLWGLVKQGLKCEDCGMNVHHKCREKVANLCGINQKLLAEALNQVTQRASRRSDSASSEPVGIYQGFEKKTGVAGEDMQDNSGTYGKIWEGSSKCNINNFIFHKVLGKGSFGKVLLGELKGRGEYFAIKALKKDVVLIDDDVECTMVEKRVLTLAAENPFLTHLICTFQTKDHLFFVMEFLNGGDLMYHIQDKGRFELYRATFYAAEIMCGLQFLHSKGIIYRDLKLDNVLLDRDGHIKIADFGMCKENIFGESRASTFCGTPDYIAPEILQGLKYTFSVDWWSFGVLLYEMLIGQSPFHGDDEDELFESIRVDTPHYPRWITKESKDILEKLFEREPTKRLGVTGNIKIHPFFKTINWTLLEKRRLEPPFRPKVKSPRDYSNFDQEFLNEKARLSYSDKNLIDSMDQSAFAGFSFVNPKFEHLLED
Protocol: as §3, §4

Sequence of p38α (Q16539 whole entry): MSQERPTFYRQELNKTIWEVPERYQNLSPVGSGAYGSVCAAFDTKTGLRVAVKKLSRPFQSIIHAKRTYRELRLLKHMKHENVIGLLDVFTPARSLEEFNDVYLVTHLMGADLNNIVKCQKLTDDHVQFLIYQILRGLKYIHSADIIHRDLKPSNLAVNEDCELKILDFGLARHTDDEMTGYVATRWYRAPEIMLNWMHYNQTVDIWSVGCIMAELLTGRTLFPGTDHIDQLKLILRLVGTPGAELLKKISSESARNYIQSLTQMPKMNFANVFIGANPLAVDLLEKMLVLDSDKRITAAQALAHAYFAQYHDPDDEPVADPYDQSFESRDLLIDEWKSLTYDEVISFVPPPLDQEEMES

Row | Structure (SMILES) | inhibition of p38α (p38α) | in vivo efficacy [1] | IC50 ([2]; dose-response, mean ± SEM of 3 independent experiments) | inhibition at 1 µM ([2]; read-out: Inhibition of PKD1) | effect on PKC-induced transphosphorylation at S744/748 [3] | IC50 ([3]; densitometry of pS916-PKD1 levels, read-out: cellular IC50 for inhibition of PKD1) | mode of inhibition with respect to ATP (PKD1) | inhibition of PKCα (PKCα) | inhibition of PKCδ (PKCδ)
1 | CC(CO)Nc1cc(-c2[nH]c3cccnc3c2-c2ccc(F)cc2)ccn1 (stereo not drawn) [Compound 139] | most potent | in vivo efficacy has been demonstrated | 16.8 nM | 94% | did not affect | 1500 nM | competitive with respect to ATP | – | –
2 | CN(C)CCCn1cc(C2=C(c3c[nH]c4ccccc34)C(=O)NC2=O)c2ccccc21 [GF109203X, reference compound] | – | – | – | – | – | – | – | strongly inhibited | strongly inhibited
